Measurements taken from patent US11447493B2 (Kinnate Biopharma Inc., priority 2018, dated 2022).

Tests used:
Assay in all cases: Radiometric protein kinase assay (33PanQinase), Assay Condition A (thiol containing)
Format in all cases: biochemical
CDK12 wt/CycK = CDK12 wt/CycK (Homo sapiens (Human), UniProt Q9NYV4); conditions: thiol containing (1.2 mM DTT), ATP 0.3 μM
Protocol: (§1) The IC50 profile of test compounds was determined using three protein kinases.
(§2) The compounds were provided as pre-weighed powders in vials. The compounds were dissolved to 1×10^−02M by adding DMSO. 100 μl of each of the resulting stock solutions were transferred into column 2 of four 96 well “master plates”.
(§3) Prior to testing, the 1×10^−02M stock solutions in column 2 of the master plates were subjected to a serial, semi-logarithmic dilution using 100% DMSO as a solvent. […] Column 1 and 7 were filled with 100% DMSO as controls. Subsequently, 2×10 μl from each well of the serial diluted copy plates were aliquoted with a 96 channel pipettor into two identical sets of “compound dilution plates”.
(§4) In the process, 90 μl H2O were added to each well of a set of compound dilution plates. To minimize potential precipitation, the H2O was added to each plate only a few minutes before the transfer of the compound solutions into the assay plates. Each plate was shaken thoroughly, resulting in a “compound dilution plate/10% DMSO”.
(§5) For the assays, 5 μl solution from each well of the compound dilution plates/10% DMSO were transferred into the assay plates. The final volume of the assay was 50 μl. All compounds were tested at 10 final assay concentrations in the range from 1×10^−04M to 3×10^−09M, in singlicate. The final DMSO concentration in the reaction cocktails was 1% in all cases.
(§6) All protein kinases were expressed in Sf9 insect cells or in E. coli as recombinant GST-fusion proteins or His-tagged proteins, either as full-length or enzymatically active fragments. All kinases were produced from human cDNAs and purified by either GSH-affinity chromatography or immobilized metal. Affinity tags were removed from a number of kinases during purification. The purity of the protein kinases was examined by SDS-PAGE/Coomassie staining, the identity was checked by mass spectroscopy.
(§7) A radiometric protein kinase assay (^33PanQinase® Activity Assay) was used for measuring the kinase activity of the three protein kinases. All kinase assays were performed in 96-well FlashPlates™ from PerkinElmer (Boston, Mass., USA) in a 50 μl reaction volume. The reaction cocktail was pipetted in four steps in the following order: • 20 μl of assay buffer (standard buffer) • 5 μl of ATP solution (in H2O) • 5 μl of test compound (in 10% DMSO) • 20 μl enzyme/substrate mix
(§8) The reaction cocktails were incubated at 30° C. for 60 minutes. The reaction was stopped with 50 μl of 2% (v/v) H3PO4, plates were aspirated and washed two times with 200 μl 0.9% (w/v) NaCl. Incorporation of ^33Pi was determined with a microplate scintillation counter (Microbeta, Wallac). All assays were performed with a BeckmanCoulter/SAGIAN™ Core System.
(§9) The median value of the counts in column 1 (n=8) of each assay plate was defined as “low control”. This value reflects unspecific binding of radioactivity to the plate in the absence of a protein kinase but in the presence of the substrate. The median value of the counts in column 7 of each assay plate (n=8) was taken as the “high control”, i.e. full activity in the absence of any inhibitor. The difference between high and low control was taken as 100% activity.
(§10) As part of the data evaluation the low control value from a particular plate was subtracted from the high control value as well as from all 80 “compound values” of the corresponding plate. The residual activity (in %) for each well of a particular plate was calculated by using the following formula: Res. Activity (%)=100×[(cpm of compound−low control)/(high control−low control)]
(§11) The residual activities for each concentration and the compound IC50 values were calculated using Quattro Workflow V3.1.1 (Quattro Research GmbH, Munich, Germany). […] The fitting method used was a least-squares fit.

CDK2/CycA2 = CDK2/CycA2 (Homo sapiens (Human), UniProt P24941); conditions: thiol containing (1.2 mM DTT), ATP 0.3 μM
Protocol: as §1, §2, §3, §4, §5, §6, §7, §8, §9, §10, §11

CDK7/CycH/MAT1 = CDK7/CycH/MAT1 (Homo sapiens (Human), UniProt P50613); conditions: thiol containing (1.2 mM DTT), ATP 3.0 μM
CDK7/CycH/MAT1, sequence (P50613 whole entry): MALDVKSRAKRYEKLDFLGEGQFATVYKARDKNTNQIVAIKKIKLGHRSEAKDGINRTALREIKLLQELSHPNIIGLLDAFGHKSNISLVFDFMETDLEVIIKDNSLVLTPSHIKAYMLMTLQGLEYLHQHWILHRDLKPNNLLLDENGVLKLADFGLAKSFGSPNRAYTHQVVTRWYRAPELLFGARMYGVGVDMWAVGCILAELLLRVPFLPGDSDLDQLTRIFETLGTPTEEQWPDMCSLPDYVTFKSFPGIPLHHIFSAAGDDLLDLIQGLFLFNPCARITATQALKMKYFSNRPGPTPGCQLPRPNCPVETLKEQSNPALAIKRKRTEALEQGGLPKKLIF
CDK7/CycH/MAT1, sequence (P51946 whole entry partner): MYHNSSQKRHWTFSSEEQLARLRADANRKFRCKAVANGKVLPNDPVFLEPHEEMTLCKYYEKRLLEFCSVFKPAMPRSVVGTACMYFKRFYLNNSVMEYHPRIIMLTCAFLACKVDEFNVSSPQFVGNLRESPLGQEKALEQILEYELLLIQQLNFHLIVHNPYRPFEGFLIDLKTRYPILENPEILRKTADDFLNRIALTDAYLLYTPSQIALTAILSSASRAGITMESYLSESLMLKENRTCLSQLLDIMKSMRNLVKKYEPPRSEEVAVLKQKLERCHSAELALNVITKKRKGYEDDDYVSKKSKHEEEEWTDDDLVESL
CDK7/CycH/MAT1, sequence (P51948 whole entry partner): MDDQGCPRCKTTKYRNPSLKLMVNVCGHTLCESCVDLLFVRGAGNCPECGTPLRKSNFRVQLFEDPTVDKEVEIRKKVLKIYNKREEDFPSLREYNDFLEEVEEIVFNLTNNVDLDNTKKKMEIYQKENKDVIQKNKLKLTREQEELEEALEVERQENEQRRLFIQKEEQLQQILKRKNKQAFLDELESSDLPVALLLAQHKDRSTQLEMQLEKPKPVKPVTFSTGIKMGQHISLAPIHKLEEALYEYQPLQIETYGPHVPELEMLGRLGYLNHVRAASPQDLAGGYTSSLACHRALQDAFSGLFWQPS
Protocol: as §1, §2, §3, §4, §5, §6, §7, §8, §9, §10, §11

CDK12 wt/CycK, sequence (Q9NYV4 whole entry): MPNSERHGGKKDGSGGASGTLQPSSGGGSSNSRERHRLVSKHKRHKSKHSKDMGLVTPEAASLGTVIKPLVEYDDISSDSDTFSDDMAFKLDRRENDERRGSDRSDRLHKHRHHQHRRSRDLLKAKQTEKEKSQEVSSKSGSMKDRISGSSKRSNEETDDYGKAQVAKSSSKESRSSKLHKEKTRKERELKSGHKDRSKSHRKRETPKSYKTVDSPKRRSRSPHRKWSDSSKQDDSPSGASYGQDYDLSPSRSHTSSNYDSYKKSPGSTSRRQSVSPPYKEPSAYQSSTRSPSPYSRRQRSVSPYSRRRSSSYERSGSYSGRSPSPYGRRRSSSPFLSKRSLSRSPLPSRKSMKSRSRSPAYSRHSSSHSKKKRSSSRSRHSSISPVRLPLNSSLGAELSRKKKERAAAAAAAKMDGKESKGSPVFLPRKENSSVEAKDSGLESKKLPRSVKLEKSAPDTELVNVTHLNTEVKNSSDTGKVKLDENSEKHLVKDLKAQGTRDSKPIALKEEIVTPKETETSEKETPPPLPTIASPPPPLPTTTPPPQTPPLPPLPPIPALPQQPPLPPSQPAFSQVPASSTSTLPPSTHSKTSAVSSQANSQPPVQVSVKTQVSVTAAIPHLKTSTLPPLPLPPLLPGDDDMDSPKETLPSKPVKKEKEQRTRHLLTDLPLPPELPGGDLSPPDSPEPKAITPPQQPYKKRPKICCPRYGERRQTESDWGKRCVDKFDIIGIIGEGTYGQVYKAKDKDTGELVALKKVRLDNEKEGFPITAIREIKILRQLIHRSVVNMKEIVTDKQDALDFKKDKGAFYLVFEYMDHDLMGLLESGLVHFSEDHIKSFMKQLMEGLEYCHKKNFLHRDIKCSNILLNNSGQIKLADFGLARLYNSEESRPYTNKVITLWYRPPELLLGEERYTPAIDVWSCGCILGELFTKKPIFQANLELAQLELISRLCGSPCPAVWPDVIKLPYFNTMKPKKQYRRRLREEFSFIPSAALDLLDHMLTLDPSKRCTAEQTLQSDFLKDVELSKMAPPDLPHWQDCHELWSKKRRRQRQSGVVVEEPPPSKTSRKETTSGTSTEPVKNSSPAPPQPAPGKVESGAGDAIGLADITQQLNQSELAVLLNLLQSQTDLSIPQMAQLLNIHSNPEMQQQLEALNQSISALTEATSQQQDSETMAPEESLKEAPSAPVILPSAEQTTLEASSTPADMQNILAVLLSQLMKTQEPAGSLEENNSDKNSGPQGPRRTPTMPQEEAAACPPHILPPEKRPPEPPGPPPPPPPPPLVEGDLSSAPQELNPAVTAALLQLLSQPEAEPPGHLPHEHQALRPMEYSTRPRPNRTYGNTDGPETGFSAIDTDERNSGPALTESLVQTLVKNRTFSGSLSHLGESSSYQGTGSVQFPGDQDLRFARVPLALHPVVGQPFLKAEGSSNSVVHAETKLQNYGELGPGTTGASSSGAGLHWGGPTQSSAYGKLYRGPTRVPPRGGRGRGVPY
CDK12 wt/CycK, sequence (O75909 whole entry partner): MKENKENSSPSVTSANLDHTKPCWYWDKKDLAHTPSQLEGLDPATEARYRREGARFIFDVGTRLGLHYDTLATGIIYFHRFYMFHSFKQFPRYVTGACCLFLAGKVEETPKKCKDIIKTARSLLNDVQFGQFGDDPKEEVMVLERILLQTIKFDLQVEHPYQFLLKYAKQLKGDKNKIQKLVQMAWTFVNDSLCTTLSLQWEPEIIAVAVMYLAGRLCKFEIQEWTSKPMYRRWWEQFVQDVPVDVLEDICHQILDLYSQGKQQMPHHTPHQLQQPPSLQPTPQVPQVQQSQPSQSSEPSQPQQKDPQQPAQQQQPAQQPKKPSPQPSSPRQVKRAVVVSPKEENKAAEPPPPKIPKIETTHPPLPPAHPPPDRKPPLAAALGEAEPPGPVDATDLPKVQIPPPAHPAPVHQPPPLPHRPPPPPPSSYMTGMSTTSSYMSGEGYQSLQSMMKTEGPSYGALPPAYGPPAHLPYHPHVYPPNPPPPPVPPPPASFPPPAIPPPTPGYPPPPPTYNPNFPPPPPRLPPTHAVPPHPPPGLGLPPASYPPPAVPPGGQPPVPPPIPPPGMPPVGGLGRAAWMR

| IC50 (CDK12 wt/CycK) | IC50 (CDK2/CycA2) | IC50 (CDK7/CycH/MAT1) | Structure (SMILES) |
| --- | --- | --- | --- |
| ≤ 0.1 µM | 1 to 10 µM | 1 to 10 µM | C=CC(=O)Nc1ccc(C(=O)N2CC[C@@H](Nc3ncc4ccc(F)cc4n3)C2)cc1 [Example 35, (R)—N-(4-(3-((7-fluoroquinazolin-2-yl)amino)pyrrolidine-1-carbonyl)phenyl)acrylamide] |
| 1 to 10 µM | 30 to 100 µM | 30 to 100 µM | C=CC(=O)Nc1ccc(C(=O)N2CCC[C@@H](Nc3ncc4cc(F)ccc4n3)C2)cc1 [Example 4, (R)-N-(4-(3-((6-fluoroquinazolin-2-yl)amino)piperidine-1-carbonyl)phenyl)acrylamide] |
| 0.1 to 1 µM | 0.1 to 1 µM | 0.1 to 1 µM | C=CC(=O)Nc1cccc(C(=O)N2CC[C@@H](Nc3ncc4ccccc4n3)C2)c1 [Example 87, (R)—N-(3-(3-(quinazolin-2-ylamino)pyrrolidine-1-carbonyl)phenyl)acrylamide] |
| 10 to 30 µM | 30 to 100 µM | 30 to 100 µM | CCC(=O)Nc1ccc(C(=O)N2CCC[C@@H](Nc3cc4ccccc4cn3)C2)cc1 [Example 18, (R)-N-(4-(3-(isoquinolin-3-ylamino)piperidine-1-carbonyl)phenyl)propionamide] |
| 1 to 10 µM | 30 to 100 µM | 30 to 100 µM | C=CC(=O)Nc1ccc(C(=O)N2CCC[C@@H](Nc3ncc4ccc(Cl)cc4n3)C2)cc1 [Example 10, (R)-N-(4-(3-((7-chloroquinazolin-2-yl)amino)piperidine-1-carbonyl)phenyl)acrylamide] |
| 10 to 30 µM | 30 to 100 µM | 30 to 100 µM | C=CC(=O)Nc1ccc(C(=O)N2CCC[C@@H](Nc3ncc4ccc(C)cc4n3)C2)cc1 [Example 9, (R)-N-(4-(3-((7-methylquinazolin-2-yl)amino)piperidine-1-carbonyl)phenyl)acrylamide] |
| 0.1 to 1 µM | 0.1 to 1 µM | 1 to 10 µM | CCC(=O)Nc1ccc(C(=O)N2CC[C@@H](Nc3ncc4ccc(Cl)cc4n3)C2)cc1 [Example 53, (R)—N-(4-(3-((7-chloroquinazolin-2-yl)amino)pyrrolidine-1-carbonyl)phenyl)propionamide] |
| 0.1 to 1 µM | 1 to 10 µM | 0.1 to 1 µM | CN(C)C/C=C/C(=O)Nc1ccc(C(=O)N2CC[C@@H](Nc3ncc4ccccc4n3)C2)cc1Cl [Example 82, (R,E)-N-(2-chloro-4-(3-(quinazolin-2-ylamino)pyrrolidine-1-carbonyl)phenyl)-4-(dimethylamino)but-2-enamide] |
| ≤ 0.1 µM | 0.1 to 1 µM | 1 to 10 µM | C=CC(=O)Nc1ccc(C(=O)N2CC[C@@H](Nc3ncc4ccc(C)cc4n3)C2)cc1 [Example 32, (R)-N-(4-(3-((7-methylquinazolin-2-yl)amino)pyrrolidine-1-carbonyl)phenyl)acrylamide] |
| 1 to 10 µM | 30 to 100 µM | 30 to 100 µM | C=CC(=O)Nc1ccc(C(=O)N2CCC[C@@H](Nc3cc4ccccc4cn3)C2)cc1 [Example 2, (R)-N-(4-(3-(isoquinolin-3-ylamino)piperidine-1-carbonyl)phenyl)acrylamide] |
| 0.1 to 1 µM | 0.1 to 1 µM | 1 to 10 µM | CCC(=O)Nc1ccc(C(=O)N2CC[C@@H](Nc3ncc4ccc(C#N)cc4n3)C2)cc1 [Example 55, (R)—N-(4-(3-((7-cyanoquinazolin-2-yl)amino)pyrrolidine-1-carbonyl)phenyl)propionamide] |
| 10 to 30 µM | 10 to 30 µM | 30 to 100 µM | CCC(=O)Nc1ccc(C(=O)N2CCC[C@@H](Nc3ncc4ccc(=O)n(C(C)C)c4n3)C2)cc1 [Example 24, (R)-N-(4-(3-((8-isopropyl-7-oxo-7,8-dihydropyrido[2,3-d]pyrimidin-2-yl)amino)piperidine-1-carbonyl)phenyl)propionamide] |
| 30 to 100 µM | 30 to 100 µM | 30 to 100 µM | CCC(=O)Nc1ccc(C(=O)N2CCC[C@@H](Nc3ncc4ccc(F)cc4n3)C2)cc1 [Example 23, (R)-N-(4-(3-((7-fluoroquinazolin-2-yl)amino)piperidine-1-carbonyl)phenyl)propionamide] |
